According to patent US20250188110A1, “SPECIFIC SMALL MOLECULE INHIBITORS THAT BLOCK KMT9 METHYLTRANSFERASE ACTIVITY AND FUNCTION” (ALBERT-LUDWIGS-UNIVERSITÄT FREIBURG, priority 2021, published 2025):
Like-named read-outs stand apart in the source and are kept apart here.

Legend:
[1] = target: T1, KMT9 (Homo sapiens, UniProt Q9Y5N5); experiment: KMT9 methyltransferase inhibition assay, MTaseGlo luminescence (from entry 155); type: biochemical; conditions: 100 nM KMT9, 5 μM ETF1, 1 μM SAM
T1 sequence (Q9Y5N5 1-214): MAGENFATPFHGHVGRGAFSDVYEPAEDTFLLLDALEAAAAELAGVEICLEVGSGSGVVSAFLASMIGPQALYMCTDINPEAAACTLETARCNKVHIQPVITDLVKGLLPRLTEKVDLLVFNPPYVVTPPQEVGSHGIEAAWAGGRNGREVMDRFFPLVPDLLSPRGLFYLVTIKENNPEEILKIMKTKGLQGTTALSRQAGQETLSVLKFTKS
T1 sequence (Q9UI30 1-120 isoform Q9UI30-2 partner): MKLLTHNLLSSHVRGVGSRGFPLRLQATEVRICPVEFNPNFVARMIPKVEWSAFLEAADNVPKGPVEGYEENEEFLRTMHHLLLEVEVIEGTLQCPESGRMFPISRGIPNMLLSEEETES
How it was run: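 KMT9 (100 nM final) pre-incubated with inhibitor for 15 min at room temperature, then reacted with 5 μM ETF1 and 1 μM SAM for 2 h at 30° C. at 2% DMSO final. MTaseGlo luminescence read after 60 min detection; IC50 reported in four potency bins.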

[2] = target: T1, KMT9; experiment: KMT9 thermal shift assay (SyproOrange); type: binding
How it was run: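 Recombinant KMT9 was incubated with compound and SyproOrange at 25° C in 50 mM BTP pH 8.5, 1 mM MgCl2, 1 mM DTT. It was then heated from 20° C to 95° C at 1° C per 15 s with fluorescence read each step. Tm came from a Boltzmann sigmoidal fit; ΔTm relative to DMSO control, binned in 5 K ranges.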

[3] = target: T1, KMT9; experiment: Microscale thermophoresis (MST) KMT9 binding
How it was run: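 His-tagged KMT9 (20 nM), RED-Tris-NTA labelled, titrated with varying compound concentrations in 25 mM HEPES pH 7.5, 100 mM NaCl, 1 mM DTT, 0.05% Tween. MST at 40% MST and 100% LED power, Nano-RED excitation; Kd binned A ≤10 nM, B 10–100, C 100–1000, D >1000 nM.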

[4] = IC50 class, MTaseGlo procedure (entries from 155 on), read-out: Inhibition
[5] = ΔTm class, 500 uM compound, 2 μM KMT9, read-out: Thermal shift
[6] = His-tag labelled KMT9 20 nM, Kd class, read-out: MST
[7] = MTaseGlo procedure (entries from 155), read-out: Inhibition (IC50)
[8] = 500 µM compound, 2 μM KMT9, read-out: Thermal shift (ΔTm)
[9] = His-tag labelled KMT9 20 nM, read-out: MST (Kd)

Compound	IC50 [1, 7] [nM]	ΔTm at 500 µM [2, 8] [°C]	Kd [3, 9] [nM]	further results
O[C@@H]1[C@H](O)[C@@H](C2CCCN(CC(F)(F)F)C2)C[C@H]1n1cc(-c2nc(Cc3ccccc3)cs2)c2cnc(Cl)nc21 (stereo partly drawn) [Compound 517, (1R,2S,3R,5R)-3-(5-(4-benzylthiazol-2-yl)-2-chloro-7H-pyrrolo[2,3-d]pyrimidin-7-yl)-5-(1-(2,2,2-trifluoroethyl)-313-piperidin-3-yl)cyclopentane-1,2-diol]				IC50 [1, 4]: > 10000 nM; ΔTm at 500 µM [2, 5]: ≤ 10 °C; Kd [3, 6]: > 1000 nM
O[C@@H]1[C@H](O)[C@@H](C2CCCN(CCc3ccccc3)C2)C[C@H]1n1cc(-c2nc(Cc3ccccc3)cs2)c2cnc(Cl)nc21 (stereo partly drawn) [Compound 518, (1R,2S,3R,5R)-3-(5-(4-benzylthiazol-2-yl)-2-chloro-7H-pyrrolo[2,3-d]pyrimidin-7-yl)-5-(1-phenethylpiperidin-3-yl)cyclopentane-1,2-diol]				IC50 [1, 4]: > 10000 nM; ΔTm at 500 µM [2, 5]: ≤ 10 °C; Kd [3, 6]: > 1000 nM
Nc1nc(Cl)nc2c1c(-c1ccn(S(=O)(=O)c3ccccc3)n1)cn2[C@@H]1C[C@H](C2CCN(CCc3ccccc3)CC2)[C@@H](O)[C@H]1O [Compound 519, (1R,2S,3R,5R)-3-{4-amino-5-[1-(benzenesulfonyl)pyrazol-3-yl]-2-chloropyrrolo[2,3-d]pyrimidin-7-yl}-5-[1-(2-phenylethyl)piperidin-4-yl]cyclopentane-1,2-diol]	100 to 1000	> 20	≤ 10	
Nc1nc(Cl)nc2c1c(-c1nc(Cc3ccccc3)cs1)cn2[C@@H]1C[C@H](C2CCN(C[C@H]3CCOC3)CC2)[C@@H](O)[C@H]1O [Compound 521R, (1R,2S,3R,5R)-3-(4-amino-5-(4-benzylthiazol-2-yl)-2-chloro-7H-pyrrolo[2,3-d]pyrimidin-7-yl)-5-(1-(((R)-tetrahydrofuran-3-yl)methyl)piperidin-4-yl)cyclopentane-1,2-diol]	1000 to 10000	15 to 20	10 to 100	
O[C@@H]1[C@H](O)[C@@H](C2CCNCC2)C[C@H]1n1cc(-c2ccn(Cc3ccccc3)n2)c2cnc(Cl)nc21 [Compound 522, (1R,2S,3R,5R)-3-(5-(1-benzyl-1H-pyrazol-3-yl)-2-chloro-7H-pyrrolo[2,3-d]pyrimidin-7-yl)-5-(piperidin-4-yl)cyclopentane-1,2-diol]				IC50 ([1]; from entry 155: MTaseGlo assay, read-out: Inhibition): 1000 to 10000 nM; ΔTm at 500 µM ([2]; ΔTm, 500 µM compound, 2 μM KMT9, 5X SO, read-out: Thermal shift): 15 to 20 °C; Kd ([3]; microscale thermophoresis, His-tag labelled KMT9 (20 nM), read-out: MST): 100 to 1000 nM
Nc1nc(Cl)nc2c1c(-c1nc(Cc3ccccc3)cs1)cn2[C@@H]1C[C@H](C2CCN(CC3CCCC3)CC2)[C@@H](O)[C@H]1O [Compound 523, (1R,2S,3R,5R)-3-(4-amino-5-(4-benzylthiazol-2-yl)-2-chloro-7H-pyrrolo[2,3-d]pyrimidin-7-yl)-5-(1-(cyclopentylmethyl)piperidin-4-yl)cyclopentane-1,2-diol]	1000 to 10000	10 to 15	100 to 1000	
Nc1nc(Cl)nc2c1c(-c1nc(Cc3ccccc3)cs1)cn2[C@@H]1C[C@H](C2CCN(Cc3ccn[nH]3)CC2)[C@@H](O)[C@H]1O [Compound 524, (1R,2S,3R,5R)-3-[4-amino-5-(4-benzyl-1,3-thiazol-2-yl)-2-chloropyrrolo[2,3-d]pyrimidin-7-yl]-5-[1-(2H-pyrazol-3-ylmethyl)piperidin-4-yl]cyclopentane-1,2-diol]	100 to 1000	15 to 20	10 to 100	
Nc1nc(Cl)nc2c1c(-c1nc(Cc3ccccc3)cs1)cn2[C@@H]1C[C@H](C2CCN(Cc3ccco3)CC2)[C@@H](O)[C@H]1O [Compound 525, (1R,2S,3R,5R)-3-(4-amino-5-(4-benzylthiazol-2-yl)-2-chloro-7H-pyrrolo[2,3-d]pyrimidin-7-yl)-5-(1-(furan-2-ylmethyl)piperidin-4-yl)cyclopentane-1,2-diol]	1000 to 10000	15 to 20	≤ 10	
Nc1nc(Cl)nc2c1c(-c1nc(Cc3ccccc3)cs1)cn2[C@@H]1C[C@H](C2CCN(Cc3cccs3)CC2)[C@@H](O)[C@H]1O [Compound 526, (1R,2S,3R,5R)-3-(4-amino-5-(4-benzylthiazol-2-yl)-2-chloro-7H-pyrrolo[2,3-d]pyrimidin-7-yl)-5-(1-(thiophen-2-ylmethyl)piperidin-4-yl)cyclopentane-1,2-diol]	100 to 1000	15 to 20	≤ 10	
Nc1nc(Cl)nc2c1c(-c1nc(Cc3ccccc3)cs1)cn2[C@@H]1C[C@H](C2CCN(Cc3ccncc3)CC2)[C@@H](O)[C@H]1O [Compound 527, (1R,2S,3R,5R)-3-(4-amino-5-(4-benzylthiazol-2-yl)-2-chloro-7H-pyrrolo[2,3-d]pyrimidin-7-yl)-5-(1-(pyridin-4-ylmethyl)piperidin-4-yl)cyclopentane-1,2-diol]	1000 to 10000	10 to 15	10 to 100	
Nc1nc(Cl)nc2c1c(-c1ccccc1)cn2[C@@H]1C[C@H](CNCCCNCCc2ccc(F)cc2)[C@@H](O)[C@H]1O [Compound 566, (1R,2S,3R,5R)-3-(4-amino-2-chloro-5-phenyl-7/pyrrolo[2,3-d]pyrimidin-7-yl)-5-(( (3-((4-fluorophenethyl)amino)propyl)amino)methyl)cyclopentane-1,2-diol]				IC50 [1, 4]: 100 to 1000 nM; ΔTm at 500 µM [2, 5]: > 20 °C; Kd [3, 6]: ≤ 10 nM
CCN(CCCNCCc1ccc(F)cc1)C[C@H]1C[C@@H](n2cc(-c3ccccc3)c3c(N)nc(Cl)nc32)[C@H](O)[C@@H]1O [Compound 568, (1R,2S,3R,5R)-3-(4-amino-2-chloro-5-phenyl-7//-pyrrolo[2,3-d]pyrimidin-7-yl)-5-((ethyl(3-((4-fluorophenethyl)amino)propyl)amino)methyl)cyclopentane-1,2-diol]				IC50 [1, 4]: 100 to 1000 nM; ΔTm at 500 µM [2, 5]: > 20 °C; Kd [3, 6]: 10 to 100 nM

Continued, in another order:

IC50 [1, 7] [nM]	ΔTm at 500 µM [2, 8] [°C]	Kd [3, 9] [nM]	Compound	further results
100 to 1000	15 to 20	≤ 10	Nc1nc(Cl)nc2c1c(Br)cn2[C@@H]1C[C@H](CN(CCCNCCc2ccc(F)cc2)c2cn[nH]c2)[C@@H](O)[C@H]1O [Compound 538, (1R,2S,3R,5R)-3-(4-amino-5-bromo-2-chloro-7H-pyrrolo[2,3-d]pyrimidin-7-yl)-5-(((3-((4-fluorophenethyl)amino)propyl)(1H-pyrazol-4-yl)amino)methyl)cyclopentane-1,2-diol]	
100 to 1000	15 to 20	10 to 100	CNc1nc(Cl)nc2c1ccn2[C@@H]1C[C@H](CNCCCNCCc2cccc(Oc3ccccc3)c2)[C@@H](O)[C@H]1O [Compound 555, (1R,2S,3R,5R)-3-(2-chloro-4-(methylamino)-7H-pyrrolo[2,3-d]pyrimidin-7-yl)-5-(((3-((3-phenoxyphenethyl)amino)propyl)amino)methyl)cyclopentane-1,2-diol]	
1000 to 10000	> 20	10 to 100	Nc1nc(Cl)nc2c1c(-c1ccccc1)cn2[C@@H]1C[C@H](CNCCCNCCc2cccc(Oc3ccccc3)c2)[C@@H](O)[C@H]1O [Compound 564, (1R,2S,3R,5R)-3-(4-amino-2-chloro-5-phenyl-7//pyrrolo[2,3-d]pyrimidin-7-yl)-5-(((3-((3-phenoxyphenethyl)amino)propyl)amino)methyl)cyclopentane-1,2-diol]	
100 to 1000	15 to 20	≤ 10	CN(CCCNCCc1ccc(F)cc1)C[C@H]1C[C@@H](n2cc(-c3ccccc3)c3c(N)nc(Cl)nc32)[C@H](O)[C@@H]1O [Compound 575, (1R,2S,3R,5R)-3-(4-amino-2-chloro-5-phenyl-7H-pyrrolo[2,3-d]pyrimidin-7-yl)-5-(((3-((4-fluorophenethyl)amino)propyl)(methyl)amino)methyl)cyclopentane-1,2-diol]	
1000 to 10000	≤ 10	100 to 1000	Nc1nc(Cl)nc2c1ccn2[C@@H]1C[C@H](c2cn[nH]c2)[C@@H](O)[C@H]1O [Compound 582, (1R,2S,3R,5R)-3-{4-Amino-2-chloropyrrolo[2,3-d]pyrimidin-7-yl}-5-(1H-pyrazol-4-yl)cyclopentane-1,2-diol]	
> 10000	≤ 10	> 1000	CNc1nc(Cl)nc2c1ccn2[C@@H]1C[C@H](c2cn[nH]c2)[C@@H](O)[C@H]1O [Compound 583, (1R,2S,3R,5R)-3-[2-chloro-4-(methylamino)pyrrolo[2,3-d]pyrimidin-7-yl]-5-(1H-pyrazol-4-yl)cyclopentane-1,2-diol]	
